The values that follow come from patent publication US5367062A, “Disubstituted and deoxydisubstituted derivatives of α-d-lyxofuranosides having anti-inflammatory and anti-proliferative activity” (Medicarb Inc., priority 1992, dated 1994).

One assay concerns rheumatoid arthritis. The note with it: cited from earlier work.
Assay [1] has as its system T cells (BALB/CBYJ responder spleen cells with C57BL/6J stimulator spleen cells). The assay is described as follows: Mixed lymphocyte response (MLR). The format is cell-based. To be noted: Mus musculus, T-cell, 120 h; estimated; 5 days incubation; MTT. The source says: i Mixed lymphocyte response (MLR).
(§1) The MLR assay measures the effects of a study compound on the activation and antigen presentation of T-lymphocytes, therefore determining immunomodulatory properties. The mouse spleen cell mitogen-induced blastogenesis and the BUD-8 human fibroblast proliferation assays measure the effects of the compounds of the present invention on cellular proliferation of cells involved in the pathogenesis of autoimmune diseases. These two assays are appropriate as screens to ascertain anti-inflammatory and/or autoimmune diseases.
The MLR is a classical assay used to measure T cell function by studying the proliferation response of T cells which are activated in vitro by genetically disparate stimulator cells. This is accomplished by co-culturing spleen cells from two different strains of mice. Splenic T cell proliferation occurs as a result of cellular activation signals generated by the ongoing cellular interactions.
In performing MLR assays, BALB/CBYJ mice were euthanized by cervical dislocation and their spleens removed. Single cell suspensions were prepared in culture medium (RPMI-1640 with hepes supplemented with 10% calf serum, 2 mM glutamine, 500 units penicillin/streptomycin and 4×10^-5 M 2-mercaptoethanol) using a Teflon pestle. The cells were centrifuged at 1500 RPM and the pellets resuspended in ACT (0.15 M Tris, 0.14 M ammonium chloride, pH 7.2 ) in order to lyse the red blood cells. After a 5 minutes incubation at 37° C. waterbath, the cells were washed and resuspended in culture medium. The splenic lymphocytes were counted. C57BL/6J spleen cells, which were used as stimulator cells, were prepared in the same way. The stimulator cells were treated with 50 μm/ml of mitomycin C for 20 minutes at 37° C., then washed five times in culture medium. The proliferative response were measured by culturing 5×10^5 responder spleen cells with 5×10^5 stimulator cells in 96-well microtiter plates in the presence or absence of test article or vehicle (DMSO). Syngeneic control cultures using mitomycin C treated normal BALB/C spleen cells as the stimulator cells were also run. All cultures were run in triplicate.
Solutions of compounds of the present invention in DMSO were prepared at a stock concentration of 300 mM. Solutions were made in a culture medium to a concentration of 1, 10, 30, 100, and 300 μM. The vehicle DMSO was used as a negative control.
After incubation for 5 days at 37° C. with 5% carbon dioxide, the amount of cell proliferation was measured by adding 20 μl of MTT (10 mg/ml in PBS) (3-[4,5-dimethylthiazol-2-yl]-2,5-diphenyltetrazolium bromide) to each well. plates were incubated for 4 hours at 37° C., after which 180 μl of supernatant was removed and 180 μl of 10% SDS in PBS was added. After an overnight incubation, the optical density (OD) of each well was read on a Molecular Devices microplate reader at 570-650 nm.
The results were determined by calculating the difference between the means of the allogeneic cultures and the means of the syngeneic cultures for each test compound concentration. Differences of the test article groups were compared to the difference of the control group. The percent change from the control was determined and an IC50 estimated. The criteria used to establish activity levels were:
Sixteen (16) novel compounds were assayed for their ability to modulate a Mixed Lymphocyte Response in vitro. The test compounds were added to MLR cultures to give final concentrations of 1, 10, 30, 100, and 300 μm. The responses observed in the test article treated wells were compared to the control wells. […] Based on the estimated IC50 all the test compounds were strong inhibitors of the MLR.

Another assay deals with mouse spleen cells. The assay is described as follows: Concanavalin A assay (mouse spleen cell mitogen induced blastogenesis). To be noted: 72 h, estimated, Con-A 1.25 μg/ml, 3 days, MTT. The format is cell-based.
Excerpt: iii Concanavalin A assay (the mouse spleen cell mitogen induced blastogenesis).
as §1
It is known that the induction and maintenance of most inflammatory diseases are typically due to the unrestricted activity of T-lymphocytes. Therefore, it is advantageous to identify compounds which are modulators of T-lymphocyte activity for eventual use in the regulation of inflammatory diseases, including acquired immune deficiency syndrome, psoriasis, systemic lupus, erythromatosus, and rheumatoid arthritis.
A simple method is used to screen compounds for their ability to modulate T-lymphocyte activity which comprises assessing the capacity of the compounds to alter the activation of murine spleen cells in response to T-lymphocyte mitogen activators, such as Conconavalin-A (Con-A). The method used to measure the effects of the compounds of the present invention on the blastogenic response of spleen cells to the T-lymphocyte mitogen (Con-A) is as follows:
The response of a mouse spleen cells to the T cell mitogen ConA is a classical assay. In this assay, mice were euthanized by cervical dislocation and their spleens removed surgically. A single cell suspension of the spleens was prepared in culture medium (RPMI-1640 with hepes, supplemented with 10% calf serum, 2 mM glutamine, 500 units penicillin/streptomycin, and 4×10^-5 M 2-mercaptoethanol) using a Teflon pestle. The cells were centrifuged at 1500 RPM and the pellets resuspended in ACT (0.15 M Tris, 0.14 M Ammonium chloride, pH 7.2) in order to lyse the red blood cells. After a five minutes incubation in 37° C. waterbath, the cells were washed and resuspended in culture medium. The splenic lymphocytes were counted using an electronic Coulter Counter and diluted to 5.0×10^6 cells/mi.
The test articles were diluted in culture medium to the appropriate concentrations. Aliquots 100 μl were distributed to triplicate wells in a 96-well microtiter plate. 50 μl of lymphocytes (2.5×10^5 cells) were added to each well. Control wells with vehicle and wells with media were also run. Plates were incubated for one hour at 37° C. 50 μl of Con-A (5 μl/ml) were then added to the wells to result in a final concentration of 1.25 μg/ml. After incubation at 37° C. with 5% carbon dioxide for 3 days, proliferation was measured by adding 20 μl of MTT (10 mg/mlin PBS) [3-(4,5-dimethyl-thiazol-2-yl)-2,5-diphenyltetrazoliumbromidel to each well. Plates were incubated for 4 hours at 37° C., after which 180 μl of 10% SDS in PBS were added. After an overnight incubation, the optical density (OD) of each well was read using a Molecular Devices microplate reader at 570-650 nm.
(§2) Duplicate cultures without Con-A were also set up. After 3 days of incubation, supernatants were assayed for lactate dehydrogenase activity to determine the viability of the cells, which is an indication of the toxicity of the test article on the splenic lymphocytes. 0.1 ml of supernatant was mixed with 0.1 ml of the LDH substrate mixture which contains 5.4×10^-2 M L(+) lactate, 6.6×10^-4 M 2-p-iodophenyl-3-p-nitrophenyl tetrazolium chloride, 2.8×10^-4 M phenazine methosulfate, 1.3×10^-3 M AND, and 0.2 M Tris buffer, pH 8.2. Plates were read immediately for 5 minutes at 490 nm using a Molecular Devices microplate reader.
The mean for each test article treated group was determined and compared to the mean of the control group. The percent change from the control was calculated, and the IC50 was estimated. […]

A further assay has as its system BUD-8 human fibroblast. The assay is described as follows: BUD-8 human cell line fibroblast proliferation assay. The format is cell-based. To be noted: 72 h, estimated, BUD-8 cells, 3 days, MTT.
Excerpt: ii BUD-8 human cell line fibroblast proliferation assay.
as §1
The skin cell fibroblast line, BUD-8, was originally derived from the normal skin of a person and can now be obtained from the American Type Culture Collection, Rockville, Md. The concentration of the compounds which were used in this assay were: 1, 10, 30, 100, and 300 μM. The vehicle was used as the negative control. Test compounds were prepared in DMSO at a stock concentration of […]. Appropriate dilutions were made in culture medium.
In this assay BUD-8 cells were collected, counted, and diluted to 2×10^4 cells/ml. 0.1 ml was plated per well to give 2×10^3 cells/well. The compounds of the present invention were diluted in culture medium to the appropriate concentrations. Aliquotes of 100 μl were distributed to triplicate wells. Control wells with vehicle and wells with media were also run. After a three day incubation at 37° C. with 5% carbon dioxide, proliferation was measured by adding 20 μl of MTT (10 mg/ml in PBS) (3-[4,5-dimethyl thiazol-2-yl]-2,5diphenyl-tetrazolium bromide) to each well. Plates were incubated for 4 hours at 37° C., after which 180 μl of 10% SDS in PBS were added. After an overnight incubation, the optical density (OD) of each well was read using a Molecular Devices microplate reader at 570-650 nm.
as §2, with “cultures” for “cultures without Con-A”, “set up to measure viability.” for “set up.”, “dehydrogenase (LDH)” for “dehydrogenase”, “the BUD-8 cells.” for “the splenic lymphocytes.”, “of supernatent” for “of supernatant”, “Tris buffer. PH” for “Tris buffer, pH”
The mean for each test article treated group was determined and compared to the mean of the control group. The percent change from the control was calculated, and the IC50 estimated. The criteria used to establish activity levels were:
Sixteen (16) test articles were assayed for their ability to inhibit fibroblast proliferation. The test article were added to BUD-8 cell cultures to give final concentrations of 1, 10, 30, 100, and 300 μM. The proliferation observed in the test article treated wells were compared to the DMSO control wells.

The test system of assay [2] is various tumor cell lines, derived from seven cancer types. The assay is described as follows: Tumor cell line screens (leukemia, melanoma, lung, colon, renal, ovarian, brain cancer). The format is cell-based. To be noted: average over tumor cell lines; read-out: GI (Average GI50) (converted). As to the method: The compounds of the present invention were also tested against various tumor cell lines, derived from seven cancer types. These include leukemia, melanoma, lung cancer, colon cancer, renal cancer, ovarian cancer, and brain cancer. Most of the compounds have shown significant activity in various screens, particularly against colon cancer and melanoma.

Where a name gives a salt, the structure may show the parent alone. Where only a bound is given, the exact number is not on record here.

As to `CN(C)CCCO[C@@H]1[C@H]2OC(C)(C)O[C@H]2O[C@@H]1[C@H](O)CO` [Amiprilose. HCl, 1,2-0-isopropylidene-3-0-3'-(N',N'-dimethylaminopropyl)-α-D-glucofuranose], the “Anti-inflammatory activity (in words)” value with rheumatoid arthritis (in vivo) is recorded as “known to have anti-inflammatory activity”. Also, the “Utility in managing the signs and symptoms of rheumatoid arthritis (in words)” value with rheumatoid arthritis (late Phase III clinical trials) is “demonstrated utility in managing the signs and symptoms of rheumatoid arthritis”.

For orientation: IC50 means the concentration needed to halve the response being measured. For orientation: GI50 means the concentration at which growth is held to half of that of the control. Take `CCCCCCCCCOCCCO[C@H]1O[C@H](COCCN2CCCC2)[C@@H]2OC(C)(C)O[C@H]12` [V, n-Nonyloxypropyl 2,3-0-(1-methlethylidene)-5-0-N'-ethylpyrrolidinyl-α-D-lyxofuranoside]: the IC50 in assay [1] is < 1 µM; in the assay with mouse spleen cells, 2.9 µM; with BUD-8 human fibroblast, 28 µM. Moreover, the GI50 in assay [2] was 5.62 µM.

Take `CCCCCCCCCOCCCO[C@H]1O[C@H](COCCN2CCCCC2)[C@@H]2OC(C)(C)O[C@H]12` [VI, n-Nonyloxypropyl 2,3-0-(1-methlethylidene)-5-0-N'-ethylpiperidinyl-α-D-lyxofuranoside]: the values for the IC50 (in assay [1]; with mouse spleen cells; in the assay on BUD-8 human fibroblast) were 0.5 µM, 2.7 µM and > 100 µM, respectively.

On to `CCCCCCCCCOCCCO[C@H]1O[C@H](CN2CCCC2)[C@@H]2OC(C)(C)O[C@H]12` [XVI], for which the IC50 in assay [1] is < 1 µM; with mouse spleen cells, 3.5 µM; in the assay with BUD-8 human fibroblast, 58 µM. Also, the GI50 in assay [2] is 5.13 µM.

With `CCCCCCCCCOCCCO[C@H]1O[C@H](CNCCCN2CCCC2)[C@@H]2OC(C)(C)O[C@H]12` [XXIV, n-Nonyloxypropyl 5-deoxy-2,3-0-(1-methylethylidene)-5-aminopropylpyrrolidinyl-α-D-lyxofuranoside], the results for the IC50 (in assay [1]; in the assay with mouse spleen cells; with BUD-8 human fibroblast) were 0.85 µM, 2.5 µM and 16 µM, respectively.

On to `CCCCCCCCCNC[C@H]1O[C@H](OCCCc2ccccc2)[C@H]2OC(C)(C)O[C@H]21` [XXIX, Phenylpropyl 5-deoxy-2,3-0-(1-methylethylidene)-5-aminononyl-α-D-lyxofuranoside], for which the results for the IC50 (in assay [1]; in the assay on mouse spleen cells; with BUD-8 human fibroblast) were 1.5 µM, 5 µM and 20 µM, respectively. Moreover, in assay [2], the GI50 is 32.4 µM.

Regarding `CC1(C)O[C@@H]2[C@@H](OCCCc3ccccc3)O[C@H](CN3CCCC3)[C@@H]2O1` [XXV, Phenylpropyl 5-deoxy-2,3-0-(1-methylethylidene)-5-pyrrolidinyl-α-D-lyxofuranoside], the IC50 in assay [1] was 12 µM; in the assay on mouse spleen cells, 25 µM; with BUD-8 human fibroblast it was 200 µM. Besides, the GI50 in assay [2] is 95.5 µM.

On to `CN(C)CCCOC[C@H]1O[C@H](OCCCc2ccccc2)[C@H]2OC(C)(C)O[C@H]21` [X], for which the IC50 is < 1 µM in assay [1], 55 µM in the assay with mouse spleen cells and 299 µM with BUD-8 human fibroblast. In addition, the GI50 in assay [2] was 91.2 µM.
